In the experiment the target is T1, ITK (Homo sapiens, UniProt Q08881).
T1 sequence (Q08881 1-620): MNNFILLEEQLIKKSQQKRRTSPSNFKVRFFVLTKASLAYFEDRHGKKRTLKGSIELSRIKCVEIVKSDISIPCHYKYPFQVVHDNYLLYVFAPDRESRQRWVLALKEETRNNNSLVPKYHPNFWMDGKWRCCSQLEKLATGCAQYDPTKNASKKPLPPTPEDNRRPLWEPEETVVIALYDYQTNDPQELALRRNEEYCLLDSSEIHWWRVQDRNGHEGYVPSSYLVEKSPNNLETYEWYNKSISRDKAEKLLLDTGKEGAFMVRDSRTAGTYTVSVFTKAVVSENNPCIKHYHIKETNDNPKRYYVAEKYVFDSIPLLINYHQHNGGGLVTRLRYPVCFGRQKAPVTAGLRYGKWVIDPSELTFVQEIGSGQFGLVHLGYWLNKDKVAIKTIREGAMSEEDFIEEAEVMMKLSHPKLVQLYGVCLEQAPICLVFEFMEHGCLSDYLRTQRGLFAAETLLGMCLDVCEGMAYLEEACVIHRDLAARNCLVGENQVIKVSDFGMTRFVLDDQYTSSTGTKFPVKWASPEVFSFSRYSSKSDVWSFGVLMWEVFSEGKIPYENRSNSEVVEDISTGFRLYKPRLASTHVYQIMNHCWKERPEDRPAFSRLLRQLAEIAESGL
Briefly: ITK degradation HiBiT assay. Format: cell-based. Further details: expressed in transfected cells; host or cells: Molt4 (ATCC CRL-1552), monoclonal clone 1C10, engineered to carry the HiBiT tag. The following applies: 4 hrs; for DC50: C-terminal HiBiT-tagged Molt4 cells; for Dmax: MOLT-4, C-terminal HiBiT-tagged Molt4 cells. The method in brief:
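C-terminal HiBiT-tagged Molt4 cells (clone 1C10) treated 4 h at 32° C with an 11-point, 5-fold compound dilution series (0.5% DMSO). HiBiT lytic detection with LgBiT then luminescence read; % ITK remaining versus concentration fit by four-parameter variable-slope model to give DC50 and Dmax.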

Structures are written as SMILES.

This passage reports DC50 and Dmax results from patent US20240279202A1 (NURIX THERAPEUTICS, INC., priority 2021, published 2024).

Take `C[C@@]12Cc3[nH]nc(-c4cc5cc(F)c(C(=O)N6CCN(CC7CCN(c8ccc(C9CCC(=O)NC9=O)cc8)CC7)CC6)cc5[nH]4)c3C[C@@H]1C2(F)F` (stereo partly drawn) [Compound 138, 3-(4-(4-((4-(2-((4aS,5aR)-5,5-difluoro-5a-methyl-1,4,4a,5,5a,6-hexahydrocyclopropa[f]indazol-3-yl)-5-fluoro-1H-indole-6-carbonyl)piperazin-1-yl)methyl)piperidin-1-yl)phenyl)piperidine-2,6-dione]: the DC50 came to 0.076 nM and the Dmax worked out at 83%.
The molecule `C[C@@]12Cc3[nH]nc(-c4cc5ccc(C(=O)N6CCN(CC7CCN(c8ccc(C(=O)N[C@H]9CCC(=O)NC9=O)nc8)CC7)CC6)cc5[nH]4)c3C[C@@H]1C2(F)F` [Compound 139, 5-(4-((4-(2-((4aS,5aR)-5,5-difluoro-5a-methyl-1,4,4a,5,5a,6-hexahydrocyclopropa[f]indazol-3-yl)-1H-indole-6-carbonyl)piperazin-1-yl)methyl)piperidin-1-yl)-N—((S)-2,6-dioxopiperidin-3-yl)picolinamide] gave a DC50 of 0.8 nM and a Dmax of 81%.
Take `COC[C@@]1(C)CCc2c(-c3cc4ccc(C(=O)N5CCN(CC6CCN(c7ccc(C8CCC(=O)NC8=O)cc7)CC6)CC5)cc4[nH]3)n[nH]c2C1` (stereo partly drawn) [Compound 140]: the Dmax was 84%.
`C[C@@]12Cc3[nH]nc(-c4cc5cc(C(=O)N6CCN(CC7(F)CCN(c8ccc(C9CCC(=O)NC9=O)cc8)CC7)CC6)ccc5[nH]4)c3C[C@@H]1C2(F)F` (stereo partly drawn) [Compound 141] returned a Dmax of 86%.
In turn, `C[C@@]12Cc3[nH]nc(-c4cc5cc(C(=O)N6CCN(CC7CCN(c8ccc(C(=O)N[C@H]9CCC(=O)NC9=O)nc8)CC7)CC6)ccc5[nH]4)c3C[C@@H]1C2(F)F` [Compound 142] yielded a Dmax of 80%.
As to `C[C@@]12Cc3[nH]nc(-c4cc5cc(C(=O)N6CCN(C[C@@H]7CCN(c8ccc(C9CCC(=O)NC9=O)cc8)C7)CC6)ccc5[nH]4)c3C[C@@H]1C2(F)F` (stereo partly drawn) [Compound 143], the Dmax is 81%.
`C[C@@]12Cc3[nH]nc(-c4cc5cc(F)c(C(=O)N6CCN(CC7CCN(c8ccc(C(=O)N[C@H]9CCC(=O)NC9=O)nc8)CC7)CC6)cc5[nH]4)c3C[C@@H]1C2(F)F` [Compound 144] had a Dmax of 78%.
The molecule `C[C@@]12Cc3[nH]nc(-c4cc5cc(F)c(C(=O)N6CCN(C[C@H]7CCN(c8ccc(C9CCC(=O)NC9=O)cc8)C7)CC6)cc5[nH]4)c3C[C@@H]1C2(F)F` (stereo partly drawn) [Compound 145] came in with a Dmax of 75%.
Molecule `C[C@@]12Cc3[nH]nc(-c4cc5cc(F)c(C(=O)N6CCN(C[C@@H]7CCN(c8ccc(C9CCC(=O)NC9=O)cc8)C7)CC6)cc5[nH]4)c3C[C@@H]1C2(F)F` (stereo partly drawn) [Compound 146] registered a Dmax of 73%.
`C[C@@]12Cc3[nH]nc(-c4cc5cc(C(=O)N6CCN(C[C@H]7CCN(c8ccc(C9CCC(=O)NC9=O)cc8)C7)CC6)ccc5[nH]4)c3C[C@@H]1C2(F)F` (stereo partly drawn) [Compound 147] returned a Dmax of 81%.
Turning to `C[C@@H]1CN(C(=O)c2ccc3cc(-c4n[nH]c5c4CCC(C)(C)C5)[nH]c3c2)CCN1CC1CCN(c2ccc(C3CCC(=O)NC3=O)cc2)CC1` (stereo partly drawn) [Compound 156], the greatest degradation seen (Dmax) is 84%.
On the same count and under the same terms, then `C[C@@H]1CN(C(=O)c2ccc3cc(-c4n[nH]c5c4CCC(C)(C)C5)[nH]c3c2)C[C@H](C)N1CC1CCN(c2ccc(C3CCC(=O)NC3=O)cc2)CC1` (stereo partly drawn) [Compound 157], with 84%; and `C[C@@H]1CN(C(=O)c2ccc3cc(-c4n[nH]c5c4C[C@@H]4C(F)(F)[C@]4(C)C5)[nH]c3c2)C[C@H](C)N1CC1CCN(c2ccc(C3CCC(=O)NC3=O)cc2)CC1` (stereo partly drawn) [Compound 158], with 88%.
In the case of `C[C@@H]1CN(C(=O)c2ccc3cc(-c4n[nH]c5c4C[C@@H]4C(F)(F)[C@]4(C)C5)[nH]c3c2)CCN1CC1CCN(c2ccc(C3CCC(=O)NC3=O)cc2)CC1` (stereo partly drawn) [Compound 159], the Dmax amounted to 84%.
The molecule `C[C@@H]1CN(C(=O)c2ccc3cc(-c4n[nH]c5c4C[C@@H]4C(F)(F)[C@]4(C)C5)[nH]c3c2)CCN1CC1CCN(c2ccc(C3CCC(=O)NC3=O)c(F)c2)CC1` (stereo partly drawn) [Compound 160] had a Dmax of 83%.
The molecule `C[C@@H]1CN(C(=O)c2ccc3cc(-c4n[nH]c5c4C[C@@H]4C(F)(F)[C@]4(C)C5)[nH]c3c2)CCN1CC1CCN(c2ccc(C3CCC(=O)NC3=O)cc2F)CC1` (stereo partly drawn) [Compound 161] gave a Dmax of 85%.
For the molecule `C[C@@]12Cc3[nH]nc(C(=O)Nc4cnn(CC5CCN(C(=O)C6CCN(c7ccc(N8CCC(=O)NC8=O)cc7)CC6)CC5)c4)c3C[C@@H]1C2(F)F` [Compound 172], the Dmax is 75%.
Same read-out and setting: the value for `Cc1nc(N2CCC(CN3CCN(C(=O)c4ccc5cc(-c6n[nH]c7c6CCC(C)(C)C7)[nH]c5c4)CC3)CC2)ccc1C1CCC(=O)NC1=O` (stereo not drawn) [Compound 181] was 61%; that for `Cc1cc(N2CCC(CN3CCN(C(=O)c4ccc5cc(-c6n[nH]c7c6CCC(C)(C)C7)[nH]c5c4)CC3)CC2)ccc1C1CCC(=O)NC1=O` (stereo not drawn) [Compound 182] was 70%; that for `CC1(C)CCc2c(-c3cc4ccc(C(=O)N5CCN(CC6CCN(c7ncc(C8CCC(=O)NC8=O)cc7F)CC6)CC5)cc4[nH]3)n[nH]c2C1` (stereo not drawn) [Compound 183] was 81%.
As for `COc1cc(N2CCC(CN3CCN(C(=O)c4ccc5cc(-c6n[nH]c7c6CCC(C)(C)C7)[nH]c5c4)CC3)CC2)ccc1C1CCC(=O)NC1=O` (stereo not drawn) [Compound 184], the greatest degradation seen (Dmax) came to 70%.
The same measure, in the same setting: then `CC1(C)CCc2c(-c3cc4ccc(C(=O)N5CCN(CCC6CCN(c7cc(C8CCC(=O)NC8=O)ccn7)CC6)CC5)cc4[nH]3)n[nH]c2C1` (stereo not drawn) [Compound 186], with 87%; and `CC1(C)CCc2c(-c3cc4ccc(C(=O)N5CCN(CC6CCN(c7ncc(C8CCC(=O)NC8=O)cn7)CC6)CC5)cc4[nH]3)n[nH]c2C1` (stereo not drawn) [Compound 187], with 70%; and `C[C@@H](C(=O)N(C)c1cc2[nH]c(-c3n[nH]c4c3CCC(C)(C)C4)cc2cc1F)N1CCN(CC2CCN(c3ccc(C4CCC(=O)NC4=O)cn3)CC2)CC1` (stereo partly drawn) [Compound 188], with 85%.
As for `C[C@@H]1CN(c2ccc(C3CCC(=O)NC3=O)cn2)CCN1CC1CCN(C(=O)c2ccc3cc(-c4n[nH]c5c4CCC(C)(C)C5)[nH]c3c2)CC1` (stereo partly drawn) [Compound 189], the Dmax amounted to 84%.
`C[C@H]1CN(c2ccc(C3CCC(=O)NC3=O)cn2)CCN1CC1CCN(C(=O)c2ccc3cc(-c4n[nH]c5c4CCC(C)(C)C5)[nH]c3c2)CC1` (stereo partly drawn) [Compound 190] registered a Dmax of 86%.
`CC1(C)CCc2c(-c3cc4ccc(C(=O)N5CCC(CN6CCCN(c7ccc(C8CCC(=O)NC8=O)cn7)CC6)CC5)cc4[nH]3)n[nH]c2C1` (stereo not drawn) [Compound 191]: the Dmax amounted to 78%.
`CC1(C)CCc2c(-c3cc4ccc(C(=O)N5CCC(CN6CCc7cc(C8CCC(=O)NC8=O)ccc7C6)CC5)cc4[nH]3)n[nH]c2C1` (stereo not drawn) [Compound 193] had a Dmax of 85%.
Molecule `CC1(C)CCc2c(-c3cc4cc(C(=O)N5CCC(CN6CCc7cc(C8CCC(=O)NC8=O)ccc7C6)CC5)ccc4[nH]3)n[nH]c2C1` (stereo not drawn) [Compound 194] showed a Dmax of 64%.
Regarding `CC1(C)CCc2c(-c3cc4ccc(C(=O)N5CCC(CN6CCCc7cc(C8CCC(=O)NC8=O)ccc76)CC5)cc4[nH]3)n[nH]c2C1` (stereo not drawn) [Compound 199], the Dmax was 52%.
As for `C[C@@]12Cc3[nH]nc(C(=O)Nc4cnn(CC5CCN(CC6CCN(C(=O)c7ccc(F)c(N8CCC(=O)NC8=O)c7)CC6)CC5)c4)c3C[C@@H]1C2(F)F` [Compound 204], the Dmax was found to be 70%.
In the case of `C[C@@]12Cc3[nH]nc(C(=O)Nc4cnn(C5CCN(CC6CCN(c7ccc(N8CCC(=O)NC8=O)cc7)CC6)CC5)c4)c3C[C@@H]1C2(F)F` [Compound 207, (4aS,5aR)-N-(1-(1-((1-(4-(2,4-dioxotetrahydropyrimidin-1(2H)-yl)phenyl)piperidin-4-yl)methyl)piperidin-4-yl)-1H-pyrazol-4-yl)-5,5-difluoro-5a-methyl-1,4,4a,5,5a,6-hexahydrocyclopropa[f]indazole-3-carboxamide], it took 0.49 nM to reach half-maximal degradation (DC50) and the Dmax turned out to be 65%.
As for `C[C@@]12Cc3[nH]nc(C(=O)Nc4cnn(C5CCN(CC6CCN(c7ccc(N8CCC(=O)NC8=O)cc7)C6)CC5)c4)c3C[C@@H]1C2(F)F` (stereo partly drawn) [Compound 209, (4aS,5aR)-N-(1-(1-((1-(4-(2,4-dioxotetrahydropyrimidin-1(2H)-yl)phenyl)pyrrolidin-3-yl)methyl)piperidin-4-yl)-1H-pyrazol-4-yl)-5,5-difluoro-5a-methyl-1,4,4a,5,5a,6-hexahydrocyclopropa[f]indazole-3-carboxamide], half-maximal degradation (DC50) was put at 0.345 nM and the Dmax is 78%.
Turning to `CC1(C)CCc2c(-c3cc4ccc(C(=O)N5CCC(CN6CCN(c7cc(C8CCC(=O)NC8=O)ccn7)CC6)CC5)cc4[nH]3)n[nH]c2C1` (stereo not drawn) [Compound 214, 3-{2-[4-({1-[2-(6,6-dimethyl-1,4,5,7-tetrahydroindazol-3-yl)-1H-indole-6-carbonyl]piperidin-4-yl}methyl)piperazin-1-yl]pyridin-4-yl}piperidine-2,6-dione], it took 36 nM to reach half-maximal degradation (DC50) and the Dmax amounted to 53%.
